For 27 compounds, IC50 results are on record in US7256186B2, “Gamma secretase inhibitors” (Schering Corporation, priority 2002, dated 2007).

Where two headings read alike, the source gives them in different places.

The assay addresses T1, Gamma secretase (Homo sapiens, UniProt P49768).
T1 construct: endogenous in cells; host or cells: Salt-washed membranes of 293 T-REx cells, clone pTRE.15; Only the substrate SPC99-Lon is transfected (pcDNA4/TO, tetracycline-induced)
The assay is described as follows: Gamma secretase activity assay on membranes of 293 cells expressing SPC99-Lon (Aβ 40 / Aβ 42 measured by ECL immunoassay). The assay is classed as biochemical. Conditions: membrane γ-secretase assay. How it is done:
Upon insertion into the membrane, the 17 amino acid signal peptide is processed, leaving an additional leucine at the N-terminus of Aβ. SPC99-lon was cloned into the pcDNA4/TO vector (Invitrogen) and transfected into 293 cells stably transfected with pcDNA6/TR, which is provided in the T-REx system (Invitrogen). The transfected cells were selected in Dulbecco's modified Eagle's media (DMEM) supplemented with 10% fetal bovine serum, 100 units/mL penicillin, 100 µg/mL streptomycin, 250 µg/mL zeocin, and 5 µg/mL blasticidin (Invitrogen). Colonies were screened for Aδ production by inducing C99 expression with 0.1 g/mL tetracycline for 16–20 h and analyzing conditioned media with a sandwich immunoassay (see below). One of the clones, designated as pTRE.15, was used in these studies.
C99 expression in cells was induced with […] tetracycline for 20 h. The cells were pretreated with […] 12-myristate 13-acetate (PMA) and […] A (BFA) for 5–6 h at 37 C before harvesting. The cells were washed 3 times with cold phosphate-buffered saline (PBS) and harvested in buffer A containing 20 mM Hepes (pH 7.5), 250 mM sucrose, 50 mM KCl, 2 mM EDTA, 2 mM EGTA, and Complete protease inhibitor tablets (Roche Molecular Biochemicals). The cell pellets were flash-frozen in liquid nitrogen and stored at −70 C before use.
To make membranes, the cells were resuspended in buffer A and lysed in a nitrogen bomb at 600 psi. The cell lysate was centrifuged at 1500 g for 10 min to remove nuclei and large cell debris. The supernatant was centrifuged at 100000 g for 1 h. The membrane pellet was resuspended in buffer A plus 0.5 M NaCl, and the membranes were collected by centrifugation at 200000 g for 1 h. The salt-washed membrane pellet was washed again in buffer A and centrifuged at 100000 g for 1 h. The final membrane pellet was resuspended in a small volume of buffer A using a Teflon-glass homogenizer. The protein concentration was determined, and membrane aliquots were flash-frozen in liquid nitrogen and stored at −70 C. γ-Secretase Reaction and Aβ Analysis
To measure γ-secretase activity, membranes were incubated at 37 C for 1 h in 50 L of buffer containing 20 mM Hepes (pH 7.0) and 2 mM EDTA. At the end of the incubation, Aβ 40 and Aβ 42 were measured using an electrochemiluminescence (ECL)-based immunoassay. Aβ 40 was identified with antibody pairs TAG-G2–10 and biotin-W02, while Aβ 42 was identified with TAG-G2–11 and biotin-4G8. The ECL signal was measured using an ECL-M8 instrument (IGEN International, Inc.) according to the manufacturer's instructions. The data presented were the means of the duplicate or triplicate measurements in each experiment.

Where [1] appears, read: 37 C, 1 h, read-out: IC50 (μM), γ-secretase inhibitory activity.
[2] abbreviates: range stated for a group of examples, read-out: IC50 within the range stated, gamma secretase assay.

By IC50 is commonly meant the concentration at which inhibition is half-maximal. As for `O=C(OC[C@H]1CCC[C@@H](c2cc(F)cc(F)c2)N1S(=O)(=O)c1ccc(Cl)cc1)N1CCC(N2CCCCC2)CC1` [Example 67-AT], the IC50 under setting [1] was found to be 0.0038 µM. As for `CC1(N2CCCCC2)CCN(C(=O)OC[C@H]2CCC[C@@H](c3cccc(F)c3)N2S(=O)(=O)c2ccc(Cl)cc2)CC1` [Example 67-BA], the IC50 under setting [2] is 0.0002 to 0.015 µM. For the compound `O=C(OC[C@H]1CCC[C@@H](c2ccc(F)c(F)c2)N1S(=O)(=O)c1ccc(Cl)cc1)N1CCC(N2CCCCC2)CC1` [Example 67-BD], the IC50 under setting [2] was 0.0002 to 0.015 µM. Same read-out and setting: the value for `Cc1cc([C@@H]2CCC[C@H](COC(=O)N3CCC(N4CCCCC4)CC3)N2S(=O)(=O)c2ccc(Cl)cc2)ccc1F` [Example 67-BE] was 0.0002 to 0.015 µM. Turning to `O=C(OC[C@H]1CCC[C@@H](c2cc(F)cc(F)c2)N1S(=O)(=O)c1ccc(Cl)cc1)N1CCC(N2CCCCC2)CC1` [Example 67-BG], the IC50 under setting [1] turned out to be 0.0023 µM and the IC50 under setting [2] was 0.0002 to 0.015 µM. In the case of `NC(=O)C1(N2CCCCC2)CCN(C(=O)OC[C@H]2CCC[C@@H](c3cc(F)cc(F)c3)N2S(=O)(=O)c2ccc(Cl)cc2)CC1` [Example 67-BH], the IC50 under setting [2] lay within 0.0002 to 0.015 µM. On to `O=C(OC[C@H]1CCC[C@@H](c2cc(F)ccc2F)N1S(=O)(=O)c1ccc(Cl)cc1)N1CCC(N2CCCCC2)CC1` [Example 67-BL], for which the IC50 under setting [2] lay within 0.0002 to 0.015 µM. As for `O=C(OC[C@H]1CCC[C@@H](c2cccc(F)c2)N1S(=O)(=O)c1ccc(Cl)cc1)N1CCC(N2CCCCC2)CC1` [Example 67-B], the IC50 runs as follows: under setting [1], 0.0027 µM; under setting [2], 0.0002 to 0.015 µM. Regarding `O=C(OC[C@H]1CCC[C@@H](c2ccccc2F)N1S(=O)(=O)c1ccc(Cl)cc1)N1CCC(N2CCCCC2)CC1` [Example 67-E], the half-inhibitory concentration (IC50) under setting [2] fell in the range of 0.0002 to 0.015 µM.

With `O=C(OC[C@H]1CCC[C@@H](c2cccc(F)c2)N1S(=O)(=O)c1ccc(Cl)cc1)N1CCC(N2CCC(F)(F)CC2)CC1` [Example 67-N], the IC50 under setting [2] was in the range of 0.0002 to 0.015 µM. On to `C=C1CCN(C2CCN(C(=O)OC[C@H]3CCC[C@@H](c4cccc(F)c4)N3S(=O)(=O)c3ccc(Cl)cc3)CC2)CC1` [Example 67-P], for which the IC50 under setting [2] fell in the range of 0.0002 to 0.015 µM. As to `O=C(OC[C@H]1CCC[C@@H](c2cccc(F)c2)N1S(=O)(=O)c1ccc(F)cc1)N1CCC(N2CCCCC2)CC1` [Example 67-U], the IC50 under setting [2] lay in the range of 0.0002 to 0.015 µM. As to `O=C(OC[C@@H]1CCC[C@H](C2CC2)N1S(=O)(=O)c1ccc(Cl)cc1)N1CCN(C2CCCCC2)CC1` [Example 160-B], the IC50 under setting [2] is 0.0002 to 0.015 µM. Turning to `CC1CC(N2CCCCC2)CCN1C(=O)OC[C@@H]1CCC[C@H](C2CC2)N1S(=O)(=O)c1ccc(Cl)cc1` (some centres unmarked) [Example 160-K], the IC50 under setting [2] lay within 0.0002 to 0.015 µM. For `O=C(OC1([C@H]2CCC[C@@H](C3CC3)N2S(=O)(=O)c2ccc(Cl)cc2)CC1)N1CCC(N2CCCCC2)CC1` [Example 161-A], the 50% inhibitory concentration (IC50) is 0.0028 µM under setting [1] and 0.0002 to 0.015 µM under setting [2]. With `CC(C)N1CCN(C(=O)OC2([C@H]3CCC[C@@H](C4CC4)N3S(=O)(=O)c3ccc(Cl)cc3)CC2)CC1` [Example 161-E], the IC50 under setting [2] lay within 0.0002 to 0.015 µM. As to `O=C(OC1([C@H]2CCC[C@@H](C3CC3)N2S(=O)(=O)c2ccc(Cl)cc2)CC1)N1CCN(CC2CC2)CC1` [Example 161-F], under setting [2], the IC50 fell in the range of 0.0002 to 0.015 µM. As for `O=C(OC1(C2CCCC(c3cccc(F)c3)N2S(=O)(=O)c2ccc(Cl)cc2)CC1)N1CCC(N2CCCCC2)CC1` (centres unmarked) [Example 173-A], the IC50 under setting [1] came out at 0.0007 µM and the IC50 under setting [2] was 0.0002 to 0.015 µM. Turning to `O=C(OC1(C2CCCC(c3cccc(F)c3)N2S(=O)(=O)c2ccc(Cl)cc2)CC1)N1CCN(C2CCCCC2)CC1` (centres unmarked) [Example 173-B], the IC50 under setting [2] fell in the range of 0.0002 to 0.015 µM. As for `O=C(OC1(C2CCCC(c3cccc(F)c3)N2S(=O)(=O)c2ccc(Cl)cc2)CC1)N1CCN(CCO)CC1` (centres unmarked) [Example 173-C], the IC50 runs as follows: under setting [1], 0.0018 µM; under setting [2], 0.0002 to 0.015 µM. `NC(=O)C1(N2CCCCC2)CCN(C(=O)OC2(C3CCCC(c4cccc(F)c4)N3S(=O)(=O)c3ccc(Cl)cc3)CC2)CC1` (centres unmarked) [Example 173-E]: the IC50 runs as follows: under setting [1], 0.0027 µM; under setting [2], 0.0002 to 0.015 µM. As for `O=C(OC1(C2CCCC(c3cccc(F)c3)N2S(=O)(=O)c2ccc(Cl)cc2)CC1)N1CCC2(CC1)NCNC2=O` (centres unmarked) [Example 173-G], the IC50 under setting [2] lay in the range of 0.0002 to 0.015 µM. `O=C(OC1([C@H]2CCC[C@@H](c3ccc(F)cc3F)N2S(=O)(=O)c2ccc(Cl)cc2)CC1)N1CCC(N2CCCCC2)CC1` [Example 173-I]: under setting [2], the concentration for half-maximal inhibition (IC50) lay in the range of 0.0002 to 0.015 µM. Consider `NC(=O)C1(N2CCCCC2)CCN(C(=O)OC2([C@H]3CCC[C@@H](c4cc(F)cc(F)c4)N3S(=O)(=O)c3ccc(Cl)cc3)CC2)CC1` [Example 173-J], for which the IC50 under setting [1] came to 0.0008 µM and the IC50 under setting [2] was in the range of 0.0002 to 0.015 µM. As for `O=C(OC1([C@H]2CCC[C@@H](c3cc(F)cc(F)c3)N2S(=O)(=O)c2ccc(Cl)cc2)CC1)N1CCN(C2CCCCC2)CC1` [Example 173-K], the IC50 under setting [2] is 0.0002 to 0.015 µM. With `O=C(OC1([C@H]2CCC[C@@H](c3cc(F)cc(F)c3)N2S(=O)(=O)c2ccc(Cl)cc2)CC1)N1CCC2(CC1)C(=O)NCN2c1ccccc1` [Example 173-L], the IC50 under setting [2] was 0.0002 to 0.015 µM. As for `O=C(OC1([C@H]2CCC[C@@H](c3cc(F)cc(F)c3)N2S(=O)(=O)c2ccc(Cl)cc2)CC1)N1CCC(N2CCCCC2)CC1` [Example 173], the IC50 under setting [1] stood at 0.0002 µM and the IC50 under setting [2] is 0.0002 to 0.015 µM.
